From PubChem BioAssay (NCI)
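Values below derive from 48-hour exposures of cells grown in 96-well plates, with endpoints linearly interpolated between the two concentrations bracketing the appropriate inhibition level. At the TGI there is no net growth.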

Key:
Assay in all cases: NCI tumour cell line growth inhibition, 48 h
[1] = system: CAKI-1 renal
[2] = system: CCRF-CEM leukemia
[3] = system: HCT-116 colon
[4] = system: K-562 leukemia
[5] = system: LOX IMVI melanoma
[6] = system: MCF7 breast
[7] = system: MOLT-4 leukemia
[8] = system: NCI-H23 lung
[9] = system: NCI-H460 lung
[10] = system: PC-3 prostate
[11] = system: SF-295 CNS
[12] = system: SN12C renal
[13] = system: SNB-75 CNS
[14] = system: UACC-62 melanoma
[15] = system: UO-31 renal
[16] = system: HOP-62 NSCLC
[17] = system: T-47D breast
[18] = system: BT-549 breast

CC(C)CC(NC(=O)C(C)(CI)Cc1ccccc1)C(=O)Nc1ccccc1 (stereo not drawn)
TGI [1]: > 100 µM
TGI [2]: > 100 µM
TGI [3]: > 100 µM
TGI [4]: > 100 µM
TGI [5]: > 100 µM
TGI [6]: > 100 µM
TGI [7]: > 100 µM
TGI [8]: > 100 µM
TGI [9]: > 100 µM
TGI [10]: > 100 µM
TGI [11]: > 100 µM
TGI [12]: > 100 µM
TGI [13]: > 100 µM
TGI [14]: > 100 µM
TGI [15]: > 100 µM

COc1ccc(C(c2ccccc2)(c2ccc(OC)cc2)N2C(=O)NC3C(CCCCC(=O)NCCCCCCOP(OCCC#N)N(C(C)C)C(C)C)SCC32)cc1 (stereo not drawn)
TGI [2]: 25.6 µM
TGI [3]: 24.9 µM
TGI [16]: 36.6 µM
TGI [4]: 32.2 µM
TGI [5]: 24 µM
TGI [7]: 28.5 µM
TGI [8]: 32.3 µM
TGI [9]: 33.8 µM
TGI [11]: 31.2 µM
TGI [14]: 27.4 µM
TGI [15]: 27.5 µM

COC(=O)CCC(=O)c1ccc2c(c1)CCC2
TGI [1]: > 100 µM
TGI [2]: > 100 µM
TGI [3]: > 100 µM
TGI [16]: > 100 µM
TGI [4]: > 100 µM
TGI [5]: > 100 µM
TGI [6]: > 100 µM
TGI [7]: > 100 µM
TGI [8]: > 100 µM
TGI [9]: > 100 µM
TGI [10]: > 100 µM
TGI [11]: > 100 µM
TGI [13]: > 100 µM
TGI [17]: > 100 µM
TGI [15]: > 100 µM

C=CCOC(=O)CC[C@H](NC(=O)[C@@H](CCC(F)(F)F)Cc1ccc(O)cc1)C(=O)OCC=C
TGI [18]: > 100 µM
TGI [1]: > 100 µM
TGI [3]: > 100 µM
TGI [16]: > 100 µM
TGI [4]: > 100 µM
TGI [5]: > 100 µM
TGI [6]: 48.2 µM
TGI [7]: 79.8 µM
TGI [8]: > 100 µM
TGI [11]: > 100 µM
TGI [12]: > 100 µM
TGI [13]: 77.2 µM
TGI [17]: 51.5 µM
TGI [14]: > 100 µM
TGI [15]: > 100 µM

C=C(C)C12CC3CC(/C(=N/O)C(C1)/C3=N\O)[C@@]2(C)O (stereo partly drawn)
TGI [1]: > 100 µM
TGI [2]: > 100 µM
TGI [3]: > 100 µM
TGI [16]: > 100 µM
TGI [4]: > 100 µM
TGI [5]: > 100 µM
TGI [7]: > 100 µM
TGI [8]: > 100 µM
TGI [9]: > 100 µM
TGI [11]: > 100 µM
TGI [12]: > 100 µM
TGI [13]: > 100 µM
TGI [14]: > 100 µM
TGI [15]: > 100 µM

COc1cccc2c1c1ccc3c(c1n2C)C(=O)C=CC3=O
TGI [1]: 11.6 µM
TGI [2]: > 100 µM
TGI [3]: 27.2 µM
TGI [16]: > 100 µM
TGI [4]: > 100 µM
TGI [5]: 32.2 µM
TGI [7]: 8.65 µM
TGI [8]: 32.2 µM
TGI [9]: > 100 µM
TGI [11]: > 100 µM
TGI [12]: 41.5 µM
TGI [14]: 31.2 µM
TGI [15]: 44.2 µM

FC1(F)[Se]C2C3CCC(C3)C2C1(F)F (stereo not drawn)
TGI [1]: > 100 µM
TGI [3]: > 100 µM
TGI [16]: > 100 µM
TGI [5]: > 100 µM
TGI [6]: > 100 µM
TGI [7]: > 100 µM
TGI [9]: > 100 µM
TGI [10]: > 100 µM
TGI [11]: > 100 µM
TGI [12]: > 100 µM
TGI [13]: > 100 µM
TGI [17]: > 100 µM
TGI [14]: > 100 µM
TGI [15]: > 100 µM

Cc1ccc(CC(Cc2ccccc2C)C(=O)O)c(C(=O)O)c1 (stereo not drawn)
TGI [18]: > 100 µM
TGI [1]: > 100 µM
TGI [2]: > 100 µM
TGI [3]: > 100 µM
TGI [16]: > 100 µM
TGI [4]: > 100 µM
TGI [5]: > 100 µM
TGI [6]: > 100 µM
TGI [7]: > 100 µM
TGI [8]: > 100 µM
TGI [9]: > 100 µM
TGI [10]: > 100 µM
TGI [11]: > 100 µM
TGI [12]: > 100 µM
TGI [13]: > 100 µM
TGI [15]: > 100 µM
